From patent US11439642B2 (Adverio Pharma GmbH, priority 2010, dated 2022)

Legend:
[1] = Pharmacokinetic parameters following intravenous administration in rats; type: in vivo; conditions: rat; for MRT / half-life: male, Wistar, plasma, iv
Description: The pharmacokinetic parameters of the substance are determined in male CD-1 mice, male Wistar rats and female beagles. The administration volume is 10 ml/kg for mice, 5 ml/kg for rats and 0.5 ml/kg for dogs. Intravenous administration is via a formulation of species-specific plasma/DMSO (99/1) in the case of mice and rats and via water/PEG400/ethanol (50/40/10) in the case of dogs. For easier removal of blood, a silicone catheter is inserted into the right Vena jugularis externa of the rats before the administration of substance. The surgical intervention takes place one day prior to the experiment with isofluran anaesthesia and administration of an analgetic (atropine/rimadyl (3/1) 0.1 ml s.c.). Substance administration is as i.v. bolus in the case of mice, as i.v. bolus or via a 15-minute infusion in the case of rats and via a 15-minute infusion in the case of dogs. Removal of blood is after 0.033, 0.083, 0.17, 0.5, 1, 2, 3, 4, 6, 7 and 24 hours in the case of mice and, after a 15-minute infusion, after 0.083, 0.25, 0.28 0.33, 0.42, 0.75, 1, 2, 3, 4, 6, 7 and 24 hours in the case of dogs and rats and after an i.v. bolus administration, after 0.033, 0.083, 0.17, 0.5, 1, 2, 3, 4, 6, 7 and 24 hours in the case of rats. For all species, oral administration of the dissolved substance via gavage is carried out based on a water/PEG400/ethanol formulation (50/40/10). Here, the removal of blood from rats and dogs is after 0.083, 0.17, 0.5, 0.75, 1, 2, 3, 4, 6, 7 and 24 hours. The blood is removed into heparinized tubes. The blood plasma is then obtained by centrifugation; if required, it can be stored at −20° C. until further processing.
An internal standard (ZK 228859) is added to the unknown samples, calibration samples and QCs, and the protein is precipitated using excess acetonitrile. After addition of an ammonium acetate buffer (0.01 M, pH 6.8 (Example 1/3) or pH 3.0 (Example 2)) and subsequent vortexing, the mixture is centrifuged at 1000 g and the supernatant is examined by LC-MS/MS (API 4000, AB Sciex). Chromatographic separation is carried out on an Agilent 1100-HPLC. The injection volume is 10 μl. The separation column used is a Phenomenex Luna 5μ C8(2) 100 A 50×2 mm, adjusted to a temperature of 40° C. For Example 1, a binary mobile phase gradient at 400 μl/min is used (A: 0.01M ammonium acetate buffer pH 6.8, B: 0.1% formic acid in acetonitrile): 0 min (90% A), 1 min (90% A), 3.5 min (15% A), 4.5 min (15% A), 4.6 min (90% A), 7 min (90% A). For Example 2, a binary mobile phase gradient at 500 μl/min is used instead (A: 0.01M ammonium acetate buffer pH 3.0, B: 0.1% formic acid in acetonitrile): 0 min (90% A), 1.5 min (90% A), 3.5 min (10% A), 4.5 min (10% A), 5 min (90% A), 7 min (90% A). For Example 3, a binary mobile solvent gradient at 500 μl/min is used instead (A: 0.01M ammonium acetate buffer pH 6.8, B: 0.1% formic acid in acetonitrile): 0 min (90% A), 1 min (90% A), 3 min (10% A), 4 min (10% A), 4.5 min (90% A), 6 min (90% A). The temperature of the Turbo V ion source is 500° C. The following MS instrument parameters are used: curtain gas 20 units (Example 1), 16 units (Example 2) or 15 units (Example 3), ion spray voltage 5 kV (Example 1/2) or 4.5 units (Example 3), gas 1 35 units (Example 1/3) or 25 units (Example 2), gas 2 30 units, CAD gas 4 units (Example 1/3) or 3 units (Example 2). The substances are quantified by peak heights or areas using extracted ion chromatograms of specific MRM experiments.
The plasma concentration/time plots determined are used to calculate the pharmacokinetic parameters such as AUC, Cmax, MRT (mean residence time), t1/2 (half life) and CL (clearance) employing the validated pharmacokinetic calculation programs KinEx (Vers. 2.5 and 3).
As the substance quantification is carried out in plasma, it is necessary to determine the blood/plasma distribution of the substance to be able to adjust the pharamacokinetic parameters in an appropriate manner. […]

rabbit aorta rings = assay: Vasorelaxant effect in vitro (phenylephrine-contracted aorta rings); conditions: Oryctolagus cuniculus, phenylephrine contraction, read-out: IC50 (concentration reducing height of phenylephrine contraction by 50%)
Description: Rabbits are stunned by a blow to the neck and exsanguinated. The aorta is removed, freed from adhering tissue and divided into rings of a width of 1.5 mm. The rings are placed individually under an initial tension in 5 ml organ baths with Krebs-Henseleit solution which is at 37° C., is gassed with carbogen and has the following composition (in each case mM): sodium chloride 119; potassium chloride: 4.8; calcium chloride dihydrate: 1; magnesium sulphate heptahydrate: 1.4; potassium dihydrogenphosphate: 1.2; sodium bicarbonate: 25; glucose: 10. The force of contraction is detected with Statham UC2 cells, amplified and digitized via A/D converters (DAS-1802 HC, Keithley Instruments, Munich) and recorded in parallel on chart recorders. To produce a contraction, phenylephrine is added to the bath cumulatively in increasing concentration. After several control cycles, the substance to be investigated is added in each further run in increasing dosage in each case, and the height of the contraction achieved is compared with the height of the contraction reached in the last preceding run. The concentration necessary to reduce the height of the control value by 50% is calculated from this (IC50 value). The standard administration volume is 5 μl and the proportion of DMSO in the bath solution corresponds to 0.1%.

[2] = 0.3 mg/kg i.v., 15-minute infusion
[3] = 0.3 mg/kg i.v. bolus administration

Structure (SMILES) | MRT [1, 2] [h] | half-life [1, 2] [h] | AUCnorm [1, 2] [kg·h/L] | CLblood [1, 2] [lh/kg] | IC50 (rabbit aorta rings) [nM] | MRT [1, 3] [h] | half-life [1, 3] [h] | AUCnorm [1, 3] [kg·h/L] | CLblood [1, 3] [lh/kg]
COC(=O)Nc1c(N)nc(-c2nn(Cc3ccccc3F)c3ncc(F)cc23)nc1N [Example 1, Methyl {4,6-diamino-2-[5-fluoro-1-(2-fluorobenzyl)-1H-pyrazolo[3,4-b]pyridin-3-yl]pyrimidin-5-yl}carbamate] | 4.1 | 3.4 | 4.36 | 0.29 | 958 |  |  |  | 
COC(=O)N(CC(F)(F)F)c1c(N)nc(-c2nn(Cc3ccccc3F)c3ncc(F)cc23)nc1N [Example 3, Methyl {4,6-diamino-2-[5-fluoro-1-(2-fluorobenzyl)-1H-pyrazolo[3,4-b]pyridin-3-yl]pyrimidin-5-yl}(2,2,2-trifluoroethyl)carbamate] |  |  |  |  | 515 | 2.3 | 1.9 | 1.36 | 1.02
COC(=O)N(C)c1c(N)nc(-c2nn(Cc3ccccc3F)c3ncc(F)cc23)nc1N [Example 2] |  |  |  |  | 251 | 2.3 | 1.7 | 1.79 | 0.53
